Experimental data from ChEMBL document CHEMBL1201862, “PubChem BioAssay data set” (2004).
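A five-concentration, 48-hour dose response in 96-well plates underlies each endpoint, interpolated linearly between surrounding concentrations. At the GI50, growth is halved.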 Active and inactive are the calls of the source. Rule as the data show it: active = GI50 up to about 1.1 µM and inactive = higher.

Key:
Assay in all cases: NCI-60 cell line screen, 48 h
[1] = test system: 786-0
[2] = test system: SW-620
[3] = test system: RPMI-8226
[4] = test system: OVCAR-5
[5] = test system: HCC 2998
[6] = test system: OVCAR-8
[7] = test system: SNB-19
[8] = test system: SK-MEL-2
[9] = test system: NCI-H460
[10] = test system: K562
[11] = test system: Malme-3M
[12] = test system: U-251
[13] = test system: SK-MEL-28
[14] = test system: HT-29
[15] = test system: TK-10
[16] = test system: HOP-92
[17] = test system: NCI-H23

Measured: GI50

NNC(=O)C(=O)N/N=C1/CCCC1C(=O)CCC(=O)Nc1ccc(Cl)cc1 (stereo not drawn)
inactive: [1] > 100 µM | [2] > 100 µM | [3] > 100 µM | [4] > 100 µM | [5] > 100 µM | [6] > 100 µM | [7] > 100 µM | [8] 24.4 µM | [9] > 100 µM | [10] 12.1 µM | [11] > 100 µM | [12] > 100 µM | [13] > 100 µM | [14] > 100 µM | [15] > 100 µM | [16] > 100 µM | [17] > 100 µM

O=C(CN1CCN(c2ccccc2)CC1)N1CCc2c([nH]c3ccccc23)C1c1cccnc1 (stereo not drawn)
inactive: [1] 15.3 µM | [2] > 66.8 µM | [3] > 100 µM | [4] > 100 µM | [5] > 87.9 µM | [6] 24.4 µM | [7] 38.2 µM | [8] > 100 µM | [9] 36.9 µM | [10] > 76.4 µM | [11] > 100 µM | [12] 14.3 µM | [13] > 95.3 µM | [14] > 53.5 µM | [15] > 29.4 µM | [16] 20.2 µM | [17] 30.5 µM

COc1ccc(NC(=O)C2C(=O)N(c3ccc(OC)cc3)C(=O)/C2=N/O)cc1 (stereo not drawn)
inactive: [1] 20.1 µM | [2] > 61.9 µM | [3] > 71.9 µM | [4] > 100 µM | [5] 21 µM | [6] 18 µM | [7] 29.4 µM | [8] 32.2 µM | [9] 21.9 µM | [10] > 100 µM | [11] 20.4 µM | [12] 22.3 µM | [13] 37.8 µM | [14] 38.6 µM | [15] 23.9 µM | [16] 16.1 µM | [17] 43.4 µM

N#Cc1cc([N+](=O)[O-])ccc1NC(=O)C(=O)Nn1c(S)nc2ccccc2c1=O
inactive: [1] > 100 µM | [2] > 100 µM | [3] > 100 µM | [4] > 100 µM | [5] > 100 µM | [6] > 100 µM | [7] > 100 µM | [9] > 100 µM | [10] > 100 µM | [11] > 100 µM | [12] > 100 µM | [13] > 100 µM | [14] > 100 µM | [15] > 100 µM | [16] > 100 µM | [17] > 100 µM

CC(=O)N1CCC2(C=Nc3ccccc32)CC1
inactive: [1] > 100 µM | [2] > 100 µM | [3] > 100 µM | [4] > 100 µM | [5] > 100 µM | [6] > 100 µM | [8] > 100 µM | [9] > 100 µM | [10] > 100 µM | [11] > 100 µM | [12] > 100 µM | [13] > 100 µM | [14] > 100 µM | [15] > 100 µM | [16] > 100 µM | [17] > 100 µM

[O-][S+](c1ccc(O)cc1)c1ccc(O)cc1
inactive: [1] > 100 µM | [2] > 100 µM | [3] > 100 µM | [4] > 100 µM | [5] > 100 µM | [7] > 100 µM | [8] > 100 µM | [9] > 100 µM | [10] > 100 µM | [11] > 100 µM | [12] > 100 µM | [13] > 100 µM | [14] > 100 µM | [15] > 100 µM | [16] > 100 µM | [17] > 100 µM

CC(=O)/C(=N\O)C(=O)NCc1ccccc1
inactive: [1] > 100 µM | [2] 15.9 µM | [3] > 100 µM | [4] > 100 µM | [5] > 100 µM | [6] > 100 µM | [7] > 100 µM | [8] > 100 µM | [9] 35.2 µM | [10] 36.4 µM | [11] > 100 µM | [12] > 100 µM | [13] > 100 µM | [14] > 100 µM | [15] > 100 µM | [16] > 100 µM | [17] > 100 µM

O=C(Cc1ccccc1)NN1C(=O)C(Cl)C1c1cccc(O)c1 (stereo not drawn)
inactive: [1] 13.2 µM | [2] 5.2 µM | [3] 2.84 µM | [4] 14.4 µM | [5] 20.2 µM | [6] 14 µM | [7] 42.7 µM | [8] 27 µM | [9] 15.3 µM | [10] 6.27 µM | [11] 31.6 µM | [12] 11.9 µM | [13] 18.4 µM | [14] 16.7 µM | [15] 18.9 µM | [17] 17.5 µM

Cc1ccc(NC(=O)/C(Cl)=C(/Cl)C(=O)O)cc1
inactive: [1] 17.3 µM | [2] 15.1 µM | [3] 14.8 µM | [4] 21 µM | [5] 19.7 µM | [7] > 100 µM | [8] 14.6 µM | [9] > 100 µM | [10] 3.57 µM | [11] 15.6 µM | [12] 17.1 µM | [13] 18.9 µM | [14] 18.3 µM | [15] 18.7 µM | [16] 18.2 µM | [17] 17.5 µM

Cn1c(=O)ccc2cc(C(=O)c3ccccc3)ccc21
inactive: [1] 83.2 µM | [2] > 100 µM | [3] 47.5 µM | [4] > 100 µM | [5] > 100 µM | [6] 58.6 µM | [7] 68.1 µM | [8] > 100 µM | [9] > 100 µM | [10] 44.1 µM | [11] > 100 µM | [12] 84.9 µM | [13] > 100 µM | [14] 46 µM | [15] 35.2 µM | [16] 34.8 µM | [17] 55 µM

CCN(CC)C(=O)N1CCN(C=S)CC1
inactive: [1] > 100 µM | [2] > 100 µM | [4] > 100 µM | [5] > 100 µM | [6] > 100 µM | [7] > 100 µM | [8] > 100 µM | [9] > 100 µM | [10] > 100 µM | [11] > 100 µM | [12] > 100 µM | [13] > 100 µM | [14] > 100 µM | [15] > 100 µM | [17] > 100 µM

CN(C)CCNC(=O)c1cccc2c1nc(-c1ccc(F)cc1)c1ccccc12
inactive: [1] 4.65 µM | [2] 2.27 µM | [4] 3.63 µM | [5] 3.34 µM | [6] 4.33 µM | [7] 6.93 µM | [8] 10.3 µM | [10] 2.44 µM | [12] 3.18 µM | [13] 7.76 µM | [14] 3.85 µM | [15] 4.03 µM | [16] 2.45 µM | [17] 5.71 µM
active: [9] 0.417 µM

CCOc1ccccc1Nc1nc(C)c(C(=O)CC(=O)C(=O)Nc2ccccc2)s1
inactive: [1] 99.8 µM | [2] 72.4 µM | [4] > 100 µM | [5] 52.7 µM | [6] 78.9 µM | [7] 91.8 µM | [8] 37.3 µM | [9] 49.7 µM | [10] 34.8 µM | [11] > 100 µM | [12] 36.6 µM | [13] > 100 µM | [14] 37.1 µM | [15] 73.8 µM | [16] 36.6 µM | [17] 36.2 µM

O=[N+]([O-])c1ccc(-c2ccc(C3=Nn4c(CNc5ccccc5Cl)nnc4SC3)o2)cc1
inactive: [1] > 100 µM | [2] > 100 µM | [3] > 100 µM | [4] > 100 µM | [5] > 100 µM | [6] > 100 µM | [7] > 100 µM | [8] > 100 µM | [9] > 100 µM | [10] 58.3 µM | [11] > 100 µM | [12] > 100 µM | [13] > 100 µM | [14] > 100 µM | [15] > 100 µM | [16] > 100 µM | [17] 87.9 µM

CCOC(=O)C(C)(C)Oc1ccc2c(-c3ccc(Cl)cc3)c(-c3ccc(Cl)cc3)c(=O)oc2c1
inactive: [1] > 100 µM | [2] > 100 µM | [3] 80 µM | [5] > 100 µM | [6] > 100 µM | [7] > 100 µM | [8] > 100 µM | [9] > 100 µM | [10] > 100 µM | [11] > 100 µM | [12] > 100 µM | [13] > 100 µM | [14] > 100 µM | [15] > 100 µM | [17] > 100 µM

Nc1nc(O)c2c(ncn2CC(O)CO)n1 (stereo not drawn)
inactive: [1] > 100 µM | [2] > 100 µM | [3] > 100 µM | [4] > 100 µM | [6] > 100 µM | [7] > 100 µM | [8] > 100 µM | [9] > 100 µM | [10] > 100 µM | [11] > 100 µM | [12] > 100 µM | [13] > 100 µM | [14] > 100 µM | [15] > 100 µM | [16] > 100 µM

CCOC(=O)C(C)(C)Oc1ccc2c(-c3ccccc3)cc(=O)oc2c1
inactive: [1] 33.7 µM | [2] 36.7 µM | [3] 18.1 µM | [5] 98.4 µM | [6] 37.1 µM | [7] 42.1 µM | [8] 22.6 µM | [9] > 100 µM | [10] 27.6 µM | [11] 28.6 µM | [12] 36.3 µM | [13] 35.6 µM | [14] > 10 µM | [15] 56.8 µM | [17] 29 µM
